# Measured values as given in patent publication US20200308170A1, “KRAS G12C INHIBITORS” (Mirati Therapeutics, Inc., priority 2017, published 2020).
# Target: KRas G12C (Homo sapiens, UniProt P01116, G12C)
# Test: Inhibition of KRas G12C in NCI-H358 cells measured by phosphorylated ERK (Phospho-ERK)
# Type: cell-based
# Conditions: 3 hours, 4 parameter fit, read-out: IC50 (pERK(Thr202/Tyr204) signal normalized with GAPDH)
# Protocol: Cells were plated in poly-D-Lysine coated 96-well plates at a concentration of 50,000 cells/well and allowed to attach for 8-12 hours. Diluted compounds were then added at a final concentration of 0.5% DMSO. After 3 hours, the medium was removed, 150 μL of 4% formaldehyde was added and the plates were incubated for 20 minutes. The plates were washed with PBS, and permeabilized using 150 μL of ice cold 100% methanol for 10 minutes. Non-specific antibody binding to the plates was blocked using 100 μL Licor Blocking Buffer (Li-Cor Biotechnology, Lincoln Nebr.) for 1 hour at room temperature. Positive control samples and samples lacking cells were parallel processed with test samples as standards.
# The amount Phospho-ERK was determined using an antibody specific for the phosphorylated form of ERK and compared to the amount of GAPDH. […] The plates were incubated for 2 hours at room temperature. The plates were washed with PBS+0.05% Tween 20.
# Secondary antibodies used to visualize primary antibodies were added as follows: Anti-rabbit-680 diluted 1:1000 and Anti-mouse-800 diluted 1:1000 in Licor Block+0.05% Tween 20 and incubated for 1 hour at room temperature. The plates were washed with PBS+0.05% Tween 20. A 100 μL aliquot of PBS was added to each well and the plates were read on a LICOR AERIUS plate reader.
# The pERK(Thr202/Tyr204) signal was normalized with the GAPDH signal and percent of DMSO control values were calculated. IC50 values were generated using a 4 parameter fit of the dose response curve.
row,IC50 [nM],Structure (SMILES)
1,1000 to 10000,"C=C(F)C(=O)N1CCN(c2nc(OC3CCN(C4CCOCC4)CC3)nc3c2CCN(c2cccc4cccc(Cl)c24)C3)C[C@@H]1CC#N [Example 130, (S)-2-(4-(7-(8-chloronaphthalen-1-yl)-2-((1-(tetrahydro-2H-pyran-4-yl)piperidin-4-yl)oxy)-5,6,7,8-tetrahydropyrido[3,4-d]pyrimidin-4-yl)-1-(2-fluoroacryloyl)piperazin-2-yl)acetonitrile]"
2,0.1 to 1000,C=C(F)C(=O)N1CCN(c2nc(OC[C@@H]3COCCN3Cc3ccccc3)nc3c2CCN(c2cccc4ccc(F)c(Cl)c24)C3)C[C@@H]1CC#N [Example 167]

# Target: T1, KRas G12C (Homo sapiens, UniProt P01116, C118S/C51S/C80L/G12C)
# T1 construct: GDP-loaded K-Ras (1-169) G12C, C51S, C80L, C118S
# Test: KRas G12C Modification Assay (LCMS detection of covalent adduct)
# Type: binding
# Conditions: 5 μM concentration for 3 hours; LC/MS of intact protein; higher POC = higher degree of modification
# Protocol: A 10 μL aliquot of each protein solution was then transferred to a 384 well microtiter plate. Initial compound stocks were generated at fifty times their desired final assay concentration in DMSO.
# Exemplary compounds of Formula (II) were diluted 25-fold into K-Ras Assay Buffer to a final of two times their final concentration. A 10 μL aliquot of each diluted compound solution was then added to each of the protein solutions in the microtiter plate to initiate reaction. […] At each time point, the reactions were quenched with 20 μL of a 25 mM acetic acid solution. […] Once all reactions were quenched, the plates were heat sealed and the samples were injected into a LC/MS system for data acquisition.
# Samples were injected in their liquid phase onto a C-3 reverse phase column to remove assay buffer and prepare the samples for mass spectrometer. The proteins were eluted from the column using an acetonitrile gradient and fed directly into the mass analyzer. Initial raw data analysis took place in Agilent MassHunter software immediately post data acquisition.
# Raw data analysis of the intact protein was exclusively a deconvolution of the multiple charge states of each protein in solution using a maximum entropy deconvolution provided in Mass Hunter. To minimize complexity, only the data over limited mass ranges were considered for analysis, with a minimum of one Dalton mass step intervals. The heights of all masses identified during raw data analysis were exported to be further analyzed in Spotfire® data analysis software.
# Final data analysis was a multistep process in the Spotfire® data analysis software package. Briefly, each protein mass was calculated as a percent of the total signal of that sample, that percentage was then normalized to the percentage of signal of the protein in the absence of reactive compounds. Those normalized signals were reported as normalized percent of control (POC). […] Key: “A”≤25% POC; “B”>25% POC−≤50% POC; “C”>50% POC and ND=not determined.
row,POC (normalized percent of control; degree of covalent modification of KRas G12C),Structure (SMILES)
1,C (“C”>50% POC),"CN1CCC[C@H]1COc1nc2c(c(N3CCN(C(=O)/C=C/CN4CC(F)C4)[C@@H](CC#N)C3)n1)CCN(c1cccc3cccc(Cl)c13)C2 [Example 10, 2-[(2S)-4-[7-(8-chloro-1-naphthyl)-2-[[(2S)-1-methylpyrrolidin-2-yl]methoxy]-6,8-dihydro-5H-pyrido[3,4-d]pyrimidin-4-yl]-1-[(E)-4-(3-fluoroazetidin-1-yl)but-2-enoyl]piperazin-2-yl]acetonitrile]"
2,C (“C”>50% POC),"CN1CCC[C@H]1COc1nc2c(c(N3CCN(C(=O)/C=C/CO)[C@@H](CC#N)C3)n1)CCN(c1cccc3cccc(Cl)c13)C2 [Example 42, 2-[(2S)-4-[7-(8-chloro-1-naphthyl)-2-[[(2S)-1-methylpyrrolidin-2-yl]methoxy]-6,8-dihydro-5H-pyrido[3,4-d]pyrimidin-4-yl]-1-[(E)-4-hydroxybut-2-enoyl]piperazin-2-yl]acetonitrile]"
3,C (“C”>50% POC),"Cc1cccc2cccc(N3CCc4c(nc(OC[C@@H]5CCCN5C)nc4N4CCN(C(=O)/C=C/c5ccncc5)[C@@H](CC#N)C4)C3)c12 [Example 55, 2-((S)-4-(7-(8-methylnaphthalen-1-yl)-2-(((S)-1-methylpyrrolidin-2-yl)methoxy)-5,6,7,8-tetrahydropyrido[3,4-d]pyrimidin-4-yl)-1-((E)-3-(pyridin-4-yl)acryloyl)piperazin-2-yl)acetonitrile]"
4,C (“C”>50% POC),"COC/C=C/C(=O)N1CCN(c2nc(OC[C@@H]3CCCN3C)nc3c2CCN(c2cccc(C)c2C)C3)C[C@@H]1CC#N [Example 18, 2-((S)-4-(7-(2,3-dimethylphenyl)-2-(((S)-1-methylpyrrolidin-2-yl)methoxy)-5,6,7,8-tetrahydropyrido[3,4-d]pyrimidin-4-yl)-1-((E)-4-methoxybut-2-enoyl)piperazin-2-yl)acetonitrile]"
5,C (“C”>50% POC),"COC/C=C/C(=O)N1CCN(c2nc(OC[C@@H]3CCCN3C)nc3c2CCN(c2cccc4cccc(Cl)c24)C3)C[C@@H]1CC#N [Example 53, 2-((S)-4-(7-(8-chloronaphthalen-1-yl)-2-(((S)-1-methylpyrrolidin-2-yl)methoxy)-5,6,7,8-tetrahydropyrido[3,4-d]pyrimidin-4-yl)-1-((E)-4-methoxybut-2-enoyl)piperazin-2-yl)acetonitrile]"
6,C (“C”>50% POC),"CN(C/C=C/C(=O)N1CCN(c2nc(OC[C@@H]3CCCN3C)nc3c2CCN(c2cccc4cccc(Cl)c24)C3)C[C@@H]1CC#N)CC(F)(F)F [Example 11, 2-[(2S)-4-[7-(8-chloro-1-naphthyl)-2-[[(2S)-1-methylpyrrolidin-2-yl]methoxy]-6,8-dihydro-5H-pyrido[3,4-d]pyrimidin-4-yl]-1-[(E)-4-[methyl(2,2,2-trifluoroethyl)amino]but-2-enoyl]piperazin-2-yl]acetonitrile]"
7,C (“C”>50% POC),"CN1CCC[C@H]1COc1nc2c(c(N3CCN(C(=O)/C=C/CF)[C@@H](CC#N)C3)n1)CCN(c1cccc3cccc(Cl)c13)C2 [Example 8, 2-[(2S)-4-[7-(8-chloro-1-naphthyl)-2-[[(2S)-1-methylpyrrolidin-2-yl]methoxy]-6,8-dihydro-5H-pyrido[3,4-d]pyrimidin-4-yl]-1-[(E)-4-fluorobut-2-enoyl]piperazin-2-yl]acetonitrile]"

# Further lines, the compound ahead of its results:
row,Structure (SMILES),POC (normalized percent of control; degree of covalent modification of KRas G12C)
1,"Cc1cccc2cccc(N3CCc4c(nc(OC[C@@H]5CCCN5C)nc4N4CCN(C(=O)/C=C/Cn5cccn5)[C@@H](CC#N)C4)C3)c12 [Example 38, 2-((S)-1-((E)-4-(1H-pyrazol-1-yl)but-2-enoyl)-4-(7-(8-methylnaphthalen-1-yl)-2-(((S)-1-methylpyrrolidin-2-yl)methoxy)-5,6,7,8-tetrahydropyrido[3,4-d]pyrimidin-4-yl)piperazin-2-yl)acetonitrile]",C (“C”>50% POC)
2,"Cc1cccc(N2CCc3c(nc(OC[C@@H]4CCCN4C)nc3N3CCN(C(=O)/C=C/CN4CCC(F)C4)[C@@H](CC#N)C3)C2)c1C (stereo partly drawn) [Example 5, 2-[(2S)-4-[7-(2,3-dimethylphenyl)-2-[[(2S)-1-methylpyrrolidin-2-yl]methoxy]-6,8-dihydro-5H-pyrido[3,4-d]pyrimidin-4-yl]-1-[(E)-4-(3-fluoropyrrolidin-1-yl)but-2-enoyl]piperazin-2-yl]acetonitrile]",C (“C”>50% POC)
3,"Cc1cccc2cccc(N3CCc4c(nc(OC[C@@H]5CCCN5C)nc4N4CCN(C(=O)C#CCO)[C@@H](CC#N)C4)C3)c12 [Example 37, 2-((S)-1-(4-hydroxybut-2-ynoyl)-4-(7-(8-methylnaphthalen-1-yl)-2-(((S)-1-methylpyrrolidin-2-yl)methoxy)-5,6,7,8-tetrahydropyrido[3,4-d]pyrimidin-4-yl)piperazin-2-yl)acetonitrile]",C (“C”>50% POC)
4,"[2H]C([2H])=C([2H])C(=O)N1CCN(c2nc(OC[C@@H]3CCCN3C)nc3c2CCN(c2cccc4ccccc24)C3)C[C@@H]1CC#N [Example 4, 2-[(2S)-4-[2-[[(2S)-1-methylpyrrolidin-2-yl]methoxy]-7-(1-naphthyl)-6,8-dihydro-5H-pyrido[3,4-d]pyrimidin-4-yl]-1-(2,3,3-trideuterioprop-2-enoyl)piperazin-2-yl]acetonitrile]",C (“C”>50% POC)
5,"Cc1cccc2cccc(N3CCc4c(nc(OC[C@@H]5CCCN5C)nc4N4CCN(C(=O)/C=C/CCl)[C@@H](CC#N)C4)C3)c12 [Example 27, 2-((S)-1-((E)-4-chlorobut-2-enoyl)-4-(7-(8-methylnaphthalen-1-yl)-2-(((S)-1-methylpyrrolidin-2-yl)methoxy)-5,6,7,8-tetrahydropyrido[3,4-d]pyrimidin-4-yl)piperazin-2-yl)acetonitrile]",C (“C”>50% POC)
6,"C=C(F)C(=O)N1CCN(c2nc(OC[C@@H]3CCCN3C)nc3c2CCN(c2cccc(C)c2C)C3)C[C@@H]1CC#N [Example 1, 2-[(2S)-4-[7-(2,3-dimethylphenyl)-2-[[(2S)-1-methylpyrrolidin-2-yl]methoxy]-6,8-dihydro-5H-pyrido[3,4-d]pyrimidin-4-yl]-1-(2-fluoroprop-2-enoyl)piperazin-2-yl]acetonitrile]",C (“C”>50% POC)
7,"Cc1cccc2cccc(N3CCc4c(nc(OC[C@@H]5CCCN5C)nc4N4CCN(C(=O)/C=C/C(=O)N(C)C)[C@@H](CC#N)C4)C3)c12 [Example 28, (E)-4-((S)-2-(cyanomethyl)-4-(7-(8-methylnaphthalen-1-yl)-2-(((S)-1-methylpyrrolidin-2-yl)methoxy)-5,6,7,8-tetrahydropyrido[3,4-d]pyrimidin-4-yl)piperazin-1-yl)-N,N-dimethyl-4-oxobut-2-enamide]",C (“C”>50% POC)
